Results reported in US10946059B2, “Formulation containing an extract of Alpinia galanga, a process for the preparation thereof, and uses thereof” (priority 2017, dated 2021).

How the values were obtained:
Assay type in all cases: in vivo, human
healthy young volunteers [1] = assay: Psychomotor Vigilance Task (PVT), sustained attention, Example 2; details: mean ± SD
Source text: Subjects were derived through multiple sources including a healthy volunteer's database and a consumer group's survey agency. The subjects were then screened. […] The subjects with body mass index (BMI) between 18.50 and 25.00 kg/m2 and a resting blood pressure≤140/90 mm Hg were considered eligible. To avoid subjects with psychotic disorders such as anxiety, depression, ADD or ADHD, subjects with Generalized Anxiety Disorder Screening (GAD-7) score≥7 & Patient Health Questionnaire-9 (PHQ-9) score≥14 were excluded from the study. […] Concomitant therapy was strictly prohibited in order to exclude any significant effect on the results. All the subjects were instructed thoroughly on the investigation procedures. Subjects were randomized and allocated to interventional products in each visit, divided in four treatment arms based on randomization chart [SPSS version 10.0, IBM] and similar trend was followed for subsequent visits. […] All these treatments were administered to subjects in the form of capsules which were identical in appearance and packed in duly labeled HDPE bottles. The blinding codes were secured at the site in tamper-evident sealed envelopes with no access to the investigators. Thus, the double blind nature of the data were ensured and strictly followed. […] Composition details of all these IPs are: Subjects reported to the clinic during the morning hours and testing began at early time of day (8:00-9:00 a.m.) for each visit to avoid influence of daily challenges (related to mental and physical stress) on outcomes and the time of day was matched for all three visits to reduce variability in response due to diurnal pattern. […] Subjects were also instructed to obtain sufficient sleep during the night prior to testing which was confirmed using sleep diary. Upon arrival at clinic, subjects were asked to rest quietly for 15-20 minutes after which vital parameters were measured and a standardized meal of approximately 200 calories was provided to control variations from possible digestion confounds. […] Post ingestion of IP, data were collected at 1, 3, and 5 hours. No other food or calorie-containing beverages were provided. Subjects were allowed to drink water as desired. Subjects were allowed to relax in an isolated room at a comfortable temperature and free to use the computer, listen to music or read magazines during the clinic stay period. […] To ensure treatment compliance, product accountability was monitored by clinical research coordinator on the following visit. […] The mean MRT was calculated in milliseconds, which is the time a subject took to press the response button as soon as each stimulus appeared. […]

healthy young volunteers [2] = assay: Attention network test (ANT 1.3.0), mental alertness, Example 2
Source text: The subjects were then screened. […] The subjects with body mass index (BMI) between 18.50 and 25.00 kg/m2 and a resting blood pressure≤140/90 mm Hg were considered eligible. To avoid subjects with psychotic disorders such as anxiety, depression, ADD or ADHD, subjects with Generalized Anxiety Disorder Screening (GAD-7) score≥7 & Patient Health Questionnaire-9 (PHQ-9) score≥14 were excluded from the study. Subjects with alertness score (Jin Fan's Attention Network Test, version 1.3.0) of 50±20 milliseconds at screening visit were considered eligible. Concomitant therapy was strictly prohibited in order to exclude any significant effect on the results. All the subjects were instructed thoroughly on the investigation procedures.
Subjects reported to the clinic during the morning hours and testing began at early time of day (8:00-9:00 a.m.) for each visit to avoid influence of daily challenges (related to mental and physical stress) on outcomes and the time of day was matched for all three visits to reduce variability in response due to diurnal pattern. […] Subjects were also instructed to obtain sufficient sleep during the night prior to testing which was confirmed using sleep diary. Upon arrival at clinic, subjects were asked to rest quietly for 15-20 minutes after which vital parameters were measured and a standardized meal of approximately 200 calories was provided to control variations from possible digestion confounds. Baseline data were collected 30 minutes post breakfast followed by administration of IP, wherein one dose of the product was administered to subject by trial coordinator at investigational site.
Post ingestion of IP, data were collected at 1, 3, and 5 hours. No other food or calorie-containing beverages were provided. Subjects were allowed to drink water as desired. Subjects were allowed to relax in an isolated room at a comfortable temperature and free to use the computer, listen to music or read magazines during the clinic stay period. To analyze the effect on IP on sleep architecture, a second dose was supplied in a labeled bottle to be taken before dinner in the night of the same day and subjects were asked to record all the details pertaining to sleep quality and duration in sleep diary. To ensure treatment compliance, product accountability was monitored by clinical research coordinator on the following visit.
The primary efficacy variable was mental alertness. Alertness is defined as achieving and maintaining a state of high sensitivity to incoming stimuli. The Attention network test (ANT) was implemented for this purpose as it provides a behavioral measure of the efficiency of the different components of attention networks separately within a single task. The downloaded JAVA version of ANT 1.3.0 (Fan et al., 2002, 2005) was used to conduct the trial. The subject was seated in a silent and secluded room. All external distractions were avoided and subjects were asked to give complete attention to the task at hand. Mental alertness in ANT was calculated in terms of difference score quantified in milliseconds and calculated by subtracting average double-cue RTs from the no-cue RTs. […]

[3] = system: subjects (male and female) habituated to average caffeine consumption; assay: Attention Network Test (CRSD-ANT), Example 1: mean response time, alertness, orientation, executive attention; details: day 7 after IP, compared to placebo
Description: Only right-handed subjects were included in the study to avoid spatial bias. […] The subjects had to refrain from smoking 24 h before study onset and refrain from alcohol intake throughout the study. Subjects with a history or presence of clinically important cardiac, renal, hepatic, endocrine (including diabetes mellitus), pulmonary, biliary, gastrointestinal, pancreatic, or neurological disorders and uncontrolled hypertension were excluded from the study. For each subject, the study was terminated after data collection on the assessment day. […] The IPs included Cymbopogon flexuosus (LG), water-soluble and water-insoluble extracts of Alpinia galanga (AG1 and AG2 respectively), and water-soluble and water-insoluble extracts of Glycyrrhiza glabra (GG1 and GG2 respectively). All interventions were administered to subjects in the form of identical capsules that had been packed in duly labeled HDPE bottles. […] The subjects were allowed to drink water as desired and allowed to relax in an isolated room at a comfortable temperature and were free to use a computer, listen to music, or read magazines during the clinic stay period. […] To ensure treatment compliance, product accountability was monitored by a clinical research coordinator on the following visit. […] Effects of IPs on different aspects of the attention network, such as alertness, orientation, and executive control, were also assessed by ANT. […]

Cn1c(=O)c2c(ncn2C)n(C)c1=O [Caffeine, caffeine]
PVT-Mean Response Time (Sustained Attention) (healthy young volunteers [1]; 1H: value at 1 hour): 290.1 ± 51.6 ms
PVT-Mean Response Time (Sustained Attention) (healthy young volunteers [1]; 3H: value at 3 hours): 287.6 ± 43.1 ms
PVT-Mean Response Time (Sustained Attention) (healthy young volunteers [1]; 5H: value at 5 hours): 296.9 ± 51.5 ms
PVT-Mean Response Time (Sustained Attention) (healthy young volunteers [1]; BL: baseline value): 310.4 ± 103.3 ms
ANT-Alertness (Mental Alertness) score (healthy young volunteers [2]; 1H: value at 1 hour, PP population, mean ± SD): 57.0 ± 18.1 ms
increase in alertness score from baseline (healthy young volunteers [2]; at one hour): 8.97 ± 18.20 ms
decrease in alertness score from baseline (healthy young volunteers [2]; at three hours): 1.23 ± 18.60 ms
subjects that would exhibit higher alertness than the subjects in the placebo group (healthy young volunteers [2]; from Cohen's d): 47%
effect size in alertness score, Cohen's d (healthy young volunteers [2]; in comparison with placebo): 0.08
alertness [3]: decrease in alertness compared to the placebo group
